Source: patent publication US6235707A, “Anticoagulant peptidyl-arginine aldehyde derivatives” (Gyogyszerkutato Intezet Kft., priority 1996, dated 2001)

Key:
[1] = tested on: New Zealand white rabbits; assay: ex vivo TT in citrate plasma of rabbits after p.o. dosing; design: species or system rabbit; conditions: p.o. 5 mg/kg
Protocol: The anticoagulant and platelet aggregation inhibiting effect of the compounds of general formula (I) was studied in New Zealand white rabbits ex vivo according to D. Bagdy et al. [Thromb. Haemost. 67, 357 (1992)]. The compounds were dissolved in buffered isotonic saline solution and administered i.v. (0,04-5.0 mg/kg) or by infusion (0.25-5.0 mg/kg/h) or subcutaneously (0.5-6.0 mg/kg) or p.o. (2.5-20 mg/kg). The effect of the compounds was detectable already within 30 minutes following p.o. administration, peak values were attained after 60-180 minutes and the therapeutic level was maintained dose-dependently for 3→6 hours.
The in vivo effect of ethoxycarbonyl-3-cyclobutyl-D-alanyl-L-prolyl-L-arginine aldehyde (1) is presented in detail in Tables 6 and 7. The corresponding values of C1 are listed as controls. The compound was administered p.o. in doses of 5 mg/kg. The blood samples drawn from the caudal vein in every 30-60 minutes were analysed. The whole blood clotting time (WBCT) and the inhibition of thrombin-induced blood platelet aggregation (PAI) were determined. The activated partial thromboplastin time (APTT) and the thrombin time (TT) in the citrate plasma obtained from the blood sample were also measured. The APTT and TT values are compiled in Table 6 and the WBCT and PAI values in Table 7.

[2] = biological target: T1, isolated human fXa (Homo sapiens, UniProt P00742); assay: fXa inhibition in solution, amidolytic method on Bz-Ile-Glu-Gly-Arg-pNA chromogen substrate (Method M6); assay type: biochemical; conditions: Table 3; isolated human fXa, Bz-Ile-Glu-Gly-Arg-pNA; read-out: B: fXa inhibiting IC50
T1 construct: The isolated active factor (e.g. thrombin, fXa) and its chromogen or fluorogen peptide-amide substrate are reacted; purchased SIGMA
Protocol: (§1) Anticoagulant activity (i.e. inhibition of the proteolytic reactions in the process) is measured by anticoagulant tests, e.g. in the thrombin time (TT), activated partial thromboplastin time (APTT) and prothrombin time (PT) tests [E. J. W. Bovie et al., Mayo Clinic Laboratory Manual of Haemostasis; W. B. Saunders Co., Philadelphia (1971)]. Plasma, inhibited in spontaneous coagulation, e.g. citrate-plasma, is made to coagulate and the required coagulation time is measured. Upon the action of anticoagulants the coagulation time is prolonged proportionally to the inhibition of the reaction(s) in the process. The anticoagulant effect can be characterised by the substance concentration required to prolong the coagulation time twofold compared to the control (IC50). The effect of anticoagulants on individual coagulant proteases is measured by the amidolytic method [R. Lottenberg et al., Methods in Enzymol. 80, 341 (1981); G. Cleason, Blood Coagulation and Fibrinolysis 5, 411 (1994)]. The isolated active factor (e.g. thrombin, fXa) and its chromogen or fluorogen peptide-amide substrate are reacted in the presence or absence of the inhibitor, resp. The enzyme inhibiting action is characterised by the inhibitory constant (IC50) measured during amidolysis.
(§2) The in vitro anticoagulant effects of the compounds of general formula (I) was measured by the prothrombin time (PT), activated partial thromboplastin time (APTT) and thrombin time (TT) tests [D. Bagdy et al., Thromb. Haemost. 67, 325 (1992)]. The fxa-inhibiting effect of the compounds was also determined using the Bz-Ile-Glu-Gly-Arg-pNA chromogen substrate (see method M6).
Determination of Factor Xa Inhibition in Solution on a 96-well Microtitre Plate
a) By means of phosphate buffer (0.1M sodium phosphate and 0.05M sodium chloride, pH=7.4) 1.3 E/ml solution is prepared from human factor Xa (SIGMA), and 0.1-1.0-10 and 100 μg/ml solutions from the peptide inhibitors. The Bz-Ile-Glu-Gly-Arg-pNA substrate is used in distilled water solution ([…]).
b) From the control and the peptide inhibitor solutions (3 parallel samples of each concentration) 30-30 μl aliquots are placed into the wells. 30 μl of factor Xa, 90 μl of buffer and 150 μl of substrate are added to the peptide solution and the extinction is determined after 10 min. at 405 nm. Thereafter the steps are the same as in M2/c.

[3] = tested on: citrate plasma; assay: activated partial thromboplastin time (APTT) plasma clotting test; assay type: biochemical; conditions: Table 3; twofold prolongation compared to control; read-out: A: anticoagulant IC50, APTT
Protocol: as §1
In the TT test coagulation is initiated by the thrombin added to the citrate plasma. In the system 22 pmol/ml of thrombin is functioning and its inhibition can be measured on the fibrinogen (one of the natural substrates of thrombin) in the presence of plasma components. In the APTT and PT tests the full coagulation process takes place. Depending on the activator fX is activated either by the extrinsic or the intrinsic pathway. The generated fXa activates prothrombin to thrombin which, in turn, triggers plasma coagulation. The coagulation time is prolonged if the enzymes or one of them is inhibited by the inhibitor. In the APTT and PT tests at most 40 pmol/ml Xa can be generated (this is the full amount of factor X present in both systems) while 150 pmol/ml (APTT) and 350 pmol/ml (PT) of thrombin are generated [B. Kaiser et al., Thromb. Res. 65, 157 (1992)].
as §2

[4] = biological target: urokinase (UK) (Homo sapiens, UniProt P00749); assay: fibrin-plate method, plasmin formation induced by urokinase; assay type: biochemical
From the text: The inhibitory effect of the new compounds of the invention on plasmin (PL) as well as on plasmin formation induced by tissue plasminogen activator (tPA) and urokinase (UK) was examined by the fibrin-plate method [D. Bagdy et al.: Thromb. Haemost. 67, 325 (1992)]. Compounds C1 and C5 served as controls. […] V. Jackson et al.: J. Cardiovasc. Pharmacol. 21, 587 (1993))]. In Table 4 the results obtained with the new compounds 1 and 2 as well as those with controls C1 and C5 are presented as an example.

T1 sequence (P00742 235-488 limits assumed): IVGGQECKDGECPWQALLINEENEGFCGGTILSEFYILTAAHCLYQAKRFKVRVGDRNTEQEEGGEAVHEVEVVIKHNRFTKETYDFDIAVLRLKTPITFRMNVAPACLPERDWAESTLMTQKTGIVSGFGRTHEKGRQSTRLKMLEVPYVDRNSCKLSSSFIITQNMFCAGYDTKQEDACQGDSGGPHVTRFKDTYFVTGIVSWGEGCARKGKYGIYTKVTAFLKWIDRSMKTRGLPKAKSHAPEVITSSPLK
T1 sequence (P00742 41-179 partner limits assumed): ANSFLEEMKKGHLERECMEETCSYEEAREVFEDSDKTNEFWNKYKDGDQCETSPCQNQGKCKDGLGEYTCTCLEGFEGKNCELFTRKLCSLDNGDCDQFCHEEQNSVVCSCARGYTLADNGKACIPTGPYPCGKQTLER

SMILES: CCOC(=O)N[C@H](CC1CCC1)C(=O)N1CCC[C@H]1C(=O)N[C@H](C=O)CCCNC(=N)N [Example 1, Ethoxycarbonyl-3-cyclobutyl-D-alanyl-L-prolyl-L-arginine aldehyde]
- TT relative clotting time ([1]; 0 min): 1.0
- TT relative clotting time ([1]; 30 min): 8.30 ± 5.67
- TT relative clotting time ([1]; 45 min): 9.04 ± 5.50
- TT relative clotting time ([1]; 60 min): 9.28 ± 5.45
- TT relative clotting time ([1]; 90 min): 13.58 ± 5.43
- TT relative clotting time ([1]; 120 min): 16.33 ± 5.89
- TT relative clotting time ([1]; 180 min): 6.95 ± 3.73
- TT relative clotting time ([1]; 240 min): 2.03 ± 0.42
- TT relative clotting time ([1]; 300 min): 1.77 ± 0.50
- IC50 [2]: 40 nM
- IC50 [3]: 350 nM
- IC50 ([4]; fibrin plate, hydrolysed area reduced to 50% of control): 120000 nM
- B: relative efficiency, UK ([4]; related to the activity of C1 (1/IC50 = 1)): 0.7
- activity against UK, times lower than that of compound C5 ([4]; text b147, third of three enzymes): 39 times
